From patent US20110166142A1, “2-SUBSTITUTED ISOFLAVONOID COMPOUNDS, MEDICAMENTS AND USES” (priority 2007, published 2011)
Read-outs that look alike come from different tables or passages of the source.

Assays:
[1] = tested on: RAW 264.7 macrophage; test: Toxicity to normal cells: RAW 264.7 macrophage (MTT); type: cell-based; details: Mus musculus, RAW264.7, 24 hours, single assay, maximum concentration 150 μM
Protocol: (§1) In a single assay, RAW 264.7 cells were seeded in 96-well plates at an appropriate cell density as determined from growth kinetics analysis and cultured for 24 hours in the absence and presence of the test compounds. Test compounds were added in serial two-fold dilutions from 150 μM in triplicate.
(§2) Cell proliferation was assessed after the addition of 20 μl of 3-4,5 dimethylthiazol-2,5-diphenyl tetrazolium bromide (MTT, 5 mg/ml in PBS, Sigma) for 3 hrs at 37° C. according to manufacturer's instructions, by comparing mean absorbance values of test compounds with that of the control.

[2] = tested on: HPAC; test: Anti-cancer activity, pancreatic HPAC (MTT); type: cell-based; details: Homo sapiens, 120 h, 5 days, Geometric Mean ± SD (Log-normal Distribution)
Protocol: The human pancreatic cancer cell line, HPAC (CRL-2119) was routinely cultured in DMEM/Hams F-12 1:1 (Gibco) and supplemented with 15 mM HEPES, 0.002 mg/ml insulin (Sigma, Cat#I9278), 0.005 mg/ml transferrin (Sigma, Cat#T8158), 40 ng/ml hydrocortisone (Sigma, Cat#H0135) and 10 ng/ml epidermal growth factor (Sigma, Cat#E4269).
(§3) All cultures were supplemented with 10% FBS (Gibco, Cat#10099-158), 5000 U/ml penicillin and 5 mg/ml streptomycin (Gibco, Cat#15070), and cultured at 37° C. in a humidified atmosphere of 5% CO2.
(§4) IC50 values were determined for each cell line. Cells were seeded in 96-well plates at an appropriate cell density as determined from growth kinetics analysis and cultured for 5 days in the absence and presence of the test compounds. Cell proliferation was assessed after the addition of 20 μl of 3-4,5 dimethylthiazol-2,5-diphenyl tetrazolium bromide (MTT, 2.5 mg/ml in PBS, Sigma) for 3-4 hrs at 37° C. according to manufacturer's instructions. IC50 values were calculated from semi-log plots of % of control proliferation on the y-axis against log dose on the x-axis.

[3] = tested on: MM200; test: Anti-cancer activity, melanoma MM200 (MTT); type: cell-based; details: 120 h, 5 days, Geometric Mean ± SD (Log-normal Distribution)
[4] = tested on: HT-29; test: Anti-cancer activity, colorectal HT-29 (MTT); type: cell-based; details: Homo sapiens, HT-29, 120 h, 5 days, Geometric Mean ± SD (Log-normal Distribution)
Protocol: (§5) The colon adeno-carcinoma cell line HT-29 (HTB-38™) and prostate adenocarcinoma cell line PC-3 (CRL-435™) were cultured in RPMI 1640 medium (Gibco, Cat#21870-076).
as §3, §4

[5] = tested on: Neonatal foreskin fibroblasts (NFF); test: Toxicity to normal cells: neonatal foreskin fibroblasts (MTT); type: cell-based; details: Homo sapiens, Fibroblast, 120 h, 5 days, mean ± SD, maximum concentration 150 μM
Protocol: (§6) Neonatal foreskin fibroblasts (NFF), a gift from Dr. Peter Parsons (Queensland Institute of Medical Research) were cultured in RPMI supplemented with 10% FBS (Gibco, Australia), penicillin (100 U/ml), streptomycin ([…]), L-glutamine (2 mM) and sodium bicarbonate (1.2 g/L), and cultured at 37° C. in a humidified atmosphere of 5% CO2 for 5 days. Test compounds were added in serial two-fold dilutions from 150 μM in triplicate. These assays were run twice.
as §2

[6] = tested on: CP70; test: Anti-cancer activity, ovarian CP70 (MTT); type: cell-based; details: 5 days, Geometric Mean ± SD (Log-normal Distribution)
Protocol: The ovarian cancer cell line, CP70 was obtained as a gift from Dr. Gil Mor (Yale University) and routinely cultured in DMEM/Hams F-12 1:1 (Gibco, Cat#11320-082) supplemented with 10 mM HEPES (Sigma, Cat#H0887), 1× non essential amino acids (Sigma, Cat#M7145), 5.0 g/L sodium bicarbonate (Sigma, Cat#S5761), and 1 mM sodium pyruvate (Sigma, Cat#S8636).
as §3, §4

[7] = tested on: panel of normal, non-transformed cells; test: Toxicity to normal cells, overall statement (NFF and RAW 264.7); type: cell-based; details: maximum concentration examined 150 μM
Protocol: as §6, §1, §2

[8] = tested on: various cell lines representative of different cancer indications; test: Anti-cancer activity, summary over several cell lines; type: cell-based
Protocol: as §4

[9] = Free radical scavenging (DPPH); details: for EC50: 0.1 mM DPPH in ethanol, 20 minutes, absorbance 517 nm, concentration causing 0.6 change in absorbance, read-out: Free radical scavenging ability EC50; for free radical scavenging activity: DPPH
Protocol: The antioxidant (free radical trapping) activity of test compounds was assessed using the stable free radical compound 2,2-diphenyl-1-picrylhydrazyl (DPPH). A stock solution of DPPH was prepared at a concentration of 0.1 mM in ethanol and mixed for 10 minutes prior to use. Test compounds at a concentration of 100 μM were reacted with DPPH for 20 minutes, after which time the absorbance at 517 nm was determined and the change in absorbance compared to a reagent blank (DPPH with ethanol alone). A dose response curve was produced for those compounds with free radical scavenging activity (ΔAbs>0.3) at 100 μM. The IC50 value was estimated as the concentration of test compound that caused a 0.6 change in absorbance (with 1.2 absorbance units representing total scavenging of the DPPH radical).

[10] = tested on: NCI-H460; test: Anti-cancer activity, lung NCI-H460 (MTT); type: cell-based; details: Homo sapiens, NCI-H460, 120 h, 5 days, Geometric Mean ± SD (Log-normal Distribution)
Protocol: The large cell lung cancer cell line NCI-H460 was cultured in RPMI 1640 medium additionally supplemented with 4.5 g/L glucose (Sigma, Cat#G8769), 5.0 g/L sodium pyruvate, 5 g/L sodium bicarbonate and buffered with 10 mM HEPES.
as §3, §4

[11] = tested on: MDA-MB-468; test: Anti-cancer activity, breast MDA-MB-468 (MTT); type: cell-based; details: Homo sapiens, MDA-MB-468, 120 h, 5 days, Geometric Mean ± SD (Log-normal Distribution)
[12] = tested on: PC-3; test: Anti-cancer activity, prostate PC-3 (MTT); type: cell-based; details: Homo sapiens, PC-3, 120 h, 5 days, Geometric Mean ± SD (Log-normal Distribution)
Protocol: as §5, §3, §4

[13] = tested on: LPS-induced NO synthesis; test: LPS-induced NO (nitrite) production in RAW 264.7 macrophages (Griess Reaction); type: cell-based, mouse; details: 10 μM; FIG. 3
Protocol: The mouse macrophage cell line RAW 264.7 was cultured in DMEM supplemented with foetal bovine serum (FBS), 2 mM glutamine and 50 U/ml penicillin/streptomycin (pen/strep). Cells were treated with either test compound (in 0.025% DMSO) or vehicle alone, and added one hour before 50 ng/ml LPS. After incubation for 24 hrs, culture media was collected for PGE2 or TXB2 measurement by ELISA (Cayman Chemical). The effect of test compounds at 10 μM on cell viability was examined using an MTT assay.
Nitrite concentration is a quantitative indicator of NO production (Wang et al. 2002) and was determined by the Griess Reaction (Coligan et al. 1994). Briefly, 100 μL of Griess reagent was added to 50 μL of each supernatant in duplicate in two separate assays, run as for the examination of PGE2 etc. The absorbance at 550 nm was measured, and nitrite concentrations were determined against a standard curve of sodium nitrite.

[14] = read-out: IC50 RAW 264.7 macrophage Unstimulated
[15] = read-out: IC50 RAW 264.7 macrophage with LPS
[16] = read-out: IC50 range against MDA-MB-468 and PC-3 cell lines

Row | EC50 [9] | IC50 [8, 16] | SMILES | IC50 [1, 14] | IC50 [1, 15] | IC50 [2] | IC50 [3] | IC50 [5] | toxicity in the tests performed [7] | IC50 [10] | IC50 [11] | IC50 [12] | further results
1 | 22.8 µM |  | C=CCC1Oc2cc(O)ccc2C=C1c1ccc(O)cc1 (stereo not drawn) [Compound 1] | 4.7 µM | 2.2 µM | 5.21 ± 1.88 µM | 6.37 ± 1.39 µM | 14.7 ± 3.05 µM | markedly toxic | 6.72 ± 1.05 µM | 3.25 ± 1.51 µM | 3.96 ± 2.02 µM | IC50 [4]: 9.36 ± 2.88 µM; IC50 ([6]; 120 h): 8.39 ± 2.8 µM; IC50 ([8]; read-out: IC50 range against all cell lines tested): 3 to 10 µM
2 |  | 2 to 29 µM | CCC1Oc2cc(O)ccc2C=C1c1ccc(O)cc1 (stereo not drawn) [Compound 2] | 15.2 µM | 90.6 µM | 56 ± 1.03 µM | 70.9 ± 1 µM | 97.8 ± 1 µM | mild to moderate toxicity |  | 2.41 ± 1.26 µM | 4.14 ± 1.04 µM | 
3 | 21.8 µM |  | COC1Oc2cc(O)ccc2C=C1c1ccc(O)cc1 (stereo not drawn) [Compound 13, 4′,7-Dihydroxy-2-methoxy-isoflav-3-ene] |  |  |  |  |  |  |  |  |  | 
4 | 24.1 µM |  | CCOC1Oc2cc(O)ccc2C=C1c1ccc(O)cc1 (stereo not drawn) [Compound 14, 2-Ethoxy-4′,7-dihydroxy-isoflav-3-ene] |  |  |  |  |  |  |  |  |  | 
5 | 20 µM |  | CCSC1Oc2cc(O)ccc2C=C1c1ccc(O)cc1 (stereo not drawn) [Compound 18, 2-Ethylthio-4′,7-dihydroxy-isoflav-3-ene] |  |  |  |  |  |  |  |  |  | 
6 | 55.1 µM |  | Oc1ccc(C2=Cc3ccc(O)cc3OC2)cc1 [Compound 37-DHE, reference compound] |  |  |  |  |  |  |  |  |  | production of nitrite by macrophages stimulated by LPS [13]: did not inhibit; free radical scavenging activity [9]: only low activity
7 | > 100 µM |  | Oc1ccc([C@H]2COc3cc(O)ccc3C2)cc1 [Eq, equol, reference compound] |  |  |  |  |  |  |  |  |  | production of nitrite by macrophages stimulated by LPS [13]: did not inhibit; free radical scavenging activity [9]: not active

Continued, molecule first:

Row | SMILES | EC50 [9] | IC50 [8, 16] | IC50 [1, 14] | IC50 [1, 15] | IC50 [2] | IC50 [3] | IC50 [5] | toxicity in the tests performed [7] | IC50 [10] | IC50 [11] | IC50 [12] | further results
8 | CC1Oc2cc(O)ccc2C=C1c1ccc(O)cc1 (stereo not drawn) [Compound 3] |  |  | 9.3 µM | 102 µM | 59.3 ± 1.28 µM | 69.4 ± 1.22 µM | 140.3 ± 1.07 µM | mild to moderate toxicity | 12.6 ± 1.1 µM | 5.18 ± 1.09 µM | 12 ± 1.22 µM | IC50 [4]: 110.1 ± 1.03 µM; IC50 ([6]; 120 h): 8.39 ± 1.13 µM; IC50 ([8]; read-out: IC50 range against CP70, MDA-MB-468, NCI-H460 and PC-3 cell lines): 5 to 13 µM
9 | CCC1Oc2cc(O)ccc2CC1c1ccc(O)cc1 (stereo not drawn) [Compound 4] |  | 2 to 29 µM | 28.3 µM | > 150 µM | 103 ± 1.16 µM |  | 122.2 ± 1 µM | mild to moderate toxicity |  | 7.23 ± 1.07 µM | 16.6 ± 1.08 µM | 
10 | Cc1c(O)ccc2c1OC(C)C(c1ccc(O)cc1)=C2 (stereo not drawn) [Compound 5] | 44.8 µM | 2 to 29 µM | > 150 µM | > 150 µM | 84.4 ± 1.34 µM |  | > 150 µM | no toxicity | 41.1 ± 1 µM | 16.7 ± 1.18 µM | 29 ± 1.05 µM | 
11 | CC1Oc2cc(O)ccc2C=C1c1cccc(O)c1 (stereo not drawn) [Compound 6] | 49.6 µM | 14 to 32 µM | > 150 µM | 140 µM | 74.6 ± 1.24 µM | 137.8 ± 1.16 µM | 138.6 ± 1.05 µM | mild to moderate toxicity | 114.8 ± 1 µM | 17 ± 1 µM | 31.7 ± 1.05 µM | IC50 [4]: ≥ 150 µM; IC50 ([6]; 120 h): 72.9 ± 1.07 µM
12 | Cc1cc(O)cc2c1C=C(c1ccc(O)cc1)C(C)O2 (stereo not drawn) [Compound 7] | 38.4 µM | 14 to 32 µM | 98.8 µM | 115 µM | 60.5 ± 1.21 µM | 102 ± 1.27 µM | 126.6 ± 1.01 µM | mild to moderate toxicity | 51.5 ± 1.03 µM | 14.5 ± 1.07 µM | 31.9 ± 1.47 µM | IC50 [4]: ≥ 150 µM; IC50 ([6]; 120 h): ~31 µM; IC50 [6]: 31.1 ± 1.06 µM
13 | CC1Oc2cc(O)ccc2CC1c1ccc(O)cc1 (stereo not drawn) [Compound 8] |  |  | > 150 µM | > 150 µM | ≥ 150 µM |  | > 150 µM | no toxicity |  | 66.3 ± 1.05 µM | 78.7 ± 1.26 µM | activity against the cell lines tested ([8]; HPAC, MDA-MB-468 and PC-3): little activity
14 | Oc1ccc(C2=Cc3ccc(O)cc3OC2O)cc1 (stereo not drawn) [Compound 16, 2,4′,7-Trihydroxy-isoflav-3-ene] |  |  |  |  |  |  |  |  |  |  |  | melting point: > 325 °C
15 | CC(=O)Oc1ccc(C2=Cc3ccc(OC(C)=O)cc3OC2C#N)cc1 (stereo not drawn) [Example 17, 4′,7-Diacetoxy-2-cyano-isoflav-3-ene] |  |  |  |  |  |  |  |  |  |  |  | melting point: 156 to 158 °C
16 | CC(=O)Oc1ccc(C2=Cc3ccc(OC(C)=O)cc3OC2CNC(=O)OC(C)(C)C)cc1 (stereo not drawn) [Example 23, 4′,7-Diacetoxy-2-(N—(BOC)aminomethyl)-isoflav-3-ene] |  |  |  |  |  |  |  |  |  |  |  | melting point: 52 to 54 °C
